By IC50 is commonly meant the concentration that gives 50% inhibition.

The assay concerns the target GABAA receptor ([35S]-TBPS binding, rat brain cortical membranes). Kind of assay: Steroid inhibition of [35S]-TBPS binding. Particulars: Table II-2, 3 nM [35S]-TBPS, in the presence of 5 mM GABA, read-out: TBPS IC50. As for the experimental part:
[^35S]-t-Butylbicyclophosphorothionate (TBPS) binding assays using rat brain cortical membranes in the presence of 5 mM GABA has been described (Gee et al, J. Pharmacol. Exp. Ther. 1987, 241, 346-353; Hawkinson et al, Mol. Pharmacol. 1994, 46, 977-985; Lewin, A. H et al., Mol. Pharmacol. 1989, 35, 189-194).
Briefly, cortices are rapidly removed following decapitation of carbon dioxide-anesthetized Sprague-Dawley rats (200-250 g). The cortices are homogenized in 10 volumes of ice-cold 0.32 M sucrose using a glass/teflon homogenizer and centrifuged at 1500×g for 10 min at 4° C. The resultant supernatants are centrifuged at 10,000×g for 20 min at 4° C. to obtain the P2 pellets. The P2 pellets are resuspended in 200 mM NaCl/50 mM Na—K phosphate pH 7.4 buffer and centrifuged at 10,000×g for 10 min at 4° C. This washing procedure is repeated twice and the pellets are resuspended in 10 volumes of buffer. Aliquots ([…]) of the membrane suspensions are incubated with 3 nM [^35S]-TBPS and […] aliquots of test drug dissolved in dimethyl sulfoxide (DMSO) (final 0.5%) in the presence of 5 mM GABA. The incubation is brought to a final volume of 1.0 mL with buffer. Nonspecific binding is determined in the presence of […] and ranged from 15 to 25%. Following a 90 min incubation at room temp, the assays are terminated by filtration through glass fiber filters (Schleicher and Schuell No. 32) using a cell harvester (Brandel) and rinsed three times with ice-cold buffer. Filter bound radioactivity is measured by liquid scintillation spectrometry. Non-linear curve fitting of the overall data for each drug averaged for each concentration is done using Prism (GraphPad). […] The concentration of test compound producing 50% inhibition (IC50) of specific binding and the maximal extent of inhibition (Imax) are determined for the individual experiments with the same model used for the overall data and then the means±SEM.s of the individual experiments are calculated.
Various compounds are or can be screened to determine their potential as modulators of [^35S]-TBPS binding in vitro. These assays are or can be performed in accordance with the above.

In the case of `CC[C@]12CC[C@@](C)(O)C[C@H]1CC[C@H]1[C@@H]3CC[C@H](C(N)=O)[C@@]3(C)CC[C@@H]12` [II-22, (3R,5R,8S,9S,10S,13S,14S,17S)-10-ethyl-3-hydroxy-3,13-dimethylhexadecahydro-1H-cyclopenta[a]phenanthrene-17-carboxamide], the half-inhibitory concentration (IC50) is 100 to 1000 nM. On to `CCOC[C@@]1(O)CC[C@@]2(CC)[C@H](CC[C@H]3[C@@H]4CC[C@H](C(=O)Nc5ccc(C#N)cc5C)[C@@]4(C)CC[C@@H]32)C1` [II-43, (3R,5R,8S,9S,10S,13S,14S,17S)-N-(4-cyano-2-methylphenyl)-3-(ethoxymethyl)-10-ethyl-3-hydroxy-13-methylhexadecahydro-1H-cyclopenta[a]phenanthrene-17-carboxamide], for which the concentration for half-maximal inhibition (IC50) was less than 10 nM. For the compound `CCOC[C@@]1(O)CC[C@@]2(CC)[C@H](CC[C@H]3[C@@H]4CC[C@H](C(=O)N5CCCC[C@@H]5C)[C@@]4(C)CC[C@@H]32)C1` [II-44, ((3R,5R,85,95,10S,13S,14S,17S)-3-(ethoxymethyl)-10-ethyl-3-hydroxy-13-methylhexadecahydro-1H-cyclopenta[a]phenanthren-17-yl)((S)-2-methylpiperidin-1-yl)methanone], the concentration for half-maximal inhibition (IC50) was in the range of 100 to 1000 nM.

`CCOC[C@@]1(O)CC[C@@]2(CC)[C@H](CC[C@H]3[C@@H]4CC[C@H](C(=O)N5CCCC[C@H]5C)[C@@]4(C)CC[C@@H]32)C1` [II-45, ((3R,5R,8S,9S,10S,13S,14S,17S)-3-(ethoxymethyl)-10-ethyl-3-hydroxy-13-methylhexadecahydro-1H-cyclopenta[a]phenanthren-17-yl)((R)-2-methylpiperidin-1-yl)methanone]: the IC50 lay within 10 to 100 nM. `CCOC[C@@]1(O)CC[C@@]2(CC)[C@H](CC[C@H]3[C@@H]4CC[C@H](C(=O)Nc5ccccc5)[C@@]4(C)CC[C@@H]32)C1` [II-46, (3R,5R,85,95,10S,13S,14S,17S)-3-(ethoxymethyl)-10-ethyl-3-hydroxy-13-methyl-N-phenylhexadecahydro-1H-cyclopenta[a]phenanthrene-17-carboxamide]: the IC50 was 10 to 100 nM. The value for `CCOC[C@@]1(O)CC[C@@]2(CC)[C@H](CC[C@H]3[C@@H]4CC[C@H](C(=O)Nc5ccccc5C)[C@@]4(C)CC[C@@H]32)C1` [II-47, (3R,5R,8S,9S,10S,13S,14S,17S)-3-(ethoxymethyl)-10-ethyl-3-hydroxy-13-methyl-N-(o-tolyl)hexadecahydro-1H-cyclopenta[a]phenanthrene-17-carboxamide] was less than 10 nM.

Regarding `CCOC[C@@]1(O)CC[C@@]2(CC)[C@H](CC[C@H]3[C@@H]4CC[C@H](C(N)=O)[C@@]4(C)CC[C@@H]32)C1` [II-48, (3R,5R,8S,9S,10S,13S,14S,17S)-3-(ethoxymethyl)-10-ethyl-3-hydroxy-13-methylhexadecahydro-1H-cyclopenta[a]phenanthrene-17-carboxamide], the concentration for half-maximal inhibition (IC50) is 100 to 1000 nM. On to `CCOC[C@@]1(O)CC[C@@]2(CC)[C@H](CC[C@H]3[C@@H]4CC[C@H](C(=O)N5CCCC[C@@H]5c5ccc(F)cc5)[C@@]4(C)CC[C@@H]32)C1` [II-50, ((3R,5R,8S,9S,10S,13S,14S,17S)-3-(ethoxymethyl)-10-ethyl-3-hydroxy-13-methylhexadecahydro-1H-cyclopenta[a]phenanthren-17-yl)((R)-2-(4-fluorophenyl)piperidin-1-yl)methanone], for which the IC50 was in the range of 100 to 1000 nM.

For the compound `CCOC[C@@]1(O)CC[C@@]2(CC)[C@H](CC[C@H]3[C@@H]4CC[C@H](C(=O)N5CCCC[C@H]5c5ccc(F)cc5)[C@@]4(C)CC[C@@H]32)C1` [II-51, ((3R,5R,8S,9S,10S,13S,14S,17S)-3-(ethoxymethyl)-10-ethyl-3-hydroxy-13-methylhexadecahydro-1H-cyclopenta[a]phenanthren-17-yl)((S)-2-(4-fluorophenyl)piperidine-1-yl)methanone], the IC50 was in the range of 10 to 100 nM. The value for `CCOC[C@@]1(O)CC[C@@]2(CC)[C@@H](CC[C@H]3[C@@H]4CC[C@H](C(=O)Nc5ccc(C#N)cc5C)[C@@]4(C)CC[C@@H]32)C1` [II-63] was 10 to 100 nM; that for `CCOC[C@@]1(O)CC[C@@]2(CC)[C@H](CC[C@H]3[C@@H]4CC[C@H](C(=O)Cn5nccn5)[C@@]4(C)CC[C@@H]32)C1` [II-75, 1-((3R,5R,8S,9S,10S,13S,14S,17S)-3-(ethoxymethyl)-10-ethyl-3-hydroxy-13-methylhexadecahydro-1H-cyclopenta[a]phenanthren-17-yl)-2-(2H-1,2,3-triazole-2-yl)ethan-1-one] was 10 to 100 nM; that for `CCOC[C@@]1(O)CC[C@@]2(CC)[C@H](CC[C@H]3[C@@H]4CC[C@H](C(=O)Cn5ccnn5)[C@@]4(C)CC[C@@H]32)C1` [II-76, 1-((3R,5R,8S,9S,10S,13S,14S,17S)-3-(ethoxymethyl)-10-ethyl-3-hydroxy-13-methylhexadecahydro-1H-cyclopenta[a]phenanthren-17-yl)-2-(1H-1,2,3-triazol-1-yl)ethan-1-one] was 10 to 100 nM.

Consider `CCOC[C@@]1(O)CC[C@@]2(CC)[C@@H](CC[C@H]3[C@@H]4CC[C@H](C(=O)Cn5nnnc5C)[C@@]4(C)CC[C@@H]32)C1` [II-78, 1-((3R,5S,8S,9S,10S,13S,14S,17S)-3-(ethoxymethyl)-10-ethyl-3-hydroxy-13-methylhexadecahydro-1H-cyclopenta[a]phenanthren-17-yl)-2-(5-methyl-1H-tetrazol-1-yl)ethan-1-one], for which the IC50 lay within 100 to 1000 nM. To `CCOC[C@@]1(O)CC[C@@]2(CC)[C@H](CC[C@H]3[C@@H]4CC[C@H](C(=O)Cn5ccc(C#N)n5)[C@@]4(C)CC[C@@H]32)C1` [II-79, 1-(2-((3R,5R,8S,9S,10S,13S,14S,17S)-3-(ethoxymethyl)-10-ethyl-3-hydroxy-13-methylhexadecahydro-1H-cyclopenta[a]phenanthren-17-yl)-2-oxoethyl)-1H-pyrazole-3-carbonitrile] belongs less than 10 nM; to `C=C[C@]12CC[C@@](C)(O)C[C@@H]1CC[C@H]1[C@@H]3CC[C@H](C(C)=O)[C@@]3(C)CC[C@@H]12` [II-A4, 1((3R,5S,8S,9S,10R,13S,14S,17S)-3-hydroxy-3,13-dimethyl-10-vinylhexadecahydro-1H-cyclopenta[a]phenanthren-17-yl)ethan-1-one], 10 to 100 nM.

Turning to `CC[C@]12CC[C@@](C)(O)C[C@@H]1CC[C@H]1[C@@H]3CC[C@H](C(C)=O)[C@@]3(C)CC[C@@H]12` [II-A5, 1-((3R,5S,8S,9S,10S,13S,14S,17S)-10-ethyl-3-hydroxy-3,13-dimethylhexadecahydro-1H-cyclopenta [a]phenanthren-17-yl)ethan-1-one], the IC50 was 10 to 100 nM. Regarding `CC[C@]12CC[C@@](C)(O)C[C@@H]1CC[C@H]1[C@@H]3CC[C@H](C(=O)Cn4cccn4)[C@@]3(C)CC[C@@H]12` [II-A7, 1-((3R,5S,8S,9S,10S,13S,14S,17S)-10-ethyl-3-hydroxy-3,13-dimethylhexadecahydro-1H-cyclopenta [a]phenanthren-17-yl)-2-(1H-pyrazol-1-yl)ethan-1-one], the IC50 was in the range of 10 to 100 nM.

Regarding `CC[C@]12CC[C@@](C)(O)C[C@@H]1CC[C@H]1[C@@H]3CC[C@H](C(=O)Cn4ccnn4)[C@@]3(C)CC[C@@H]12` [II-A8], the 50% inhibitory concentration (IC50) is less than 10 nM. To `CC[C@]12CC[C@@](C)(O)C[C@@H]1CC[C@H]1[C@@H]3CC[C@H](C(=O)Cn4nccn4)[C@@]3(C)CC[C@@H]12` [II-A8a] belongs 10 to 100 nM. Regarding `CC[C@]12CC[C@@](C)(O)C[C@@H]1CC[C@H]1[C@@H]3CC[C@H](C(=O)CN4CCOCC4)[C@@]3(C)CC[C@@H]12` [II-A9, 1-((3R,5S,8S,9S,10S,13S,14S,17S)-10-ethyl-3-hydroxy-3,13-dimethylhexadecahydro-1H-cyclopenta[a]phenanthren-17-yl)-2-morpholinoethan-1-one], the IC50 lay within 10 to 100 nM. To `CC[C@]12CC[C@@](C)(O)C[C@@H]1CC[C@H]1[C@@H]3CC[C@H](C(=O)CN4CCN(S(C)(=O)=O)CC4)[C@@]3(C)CC[C@@H]12` [II-A10, 1-((3R,5S,8S,9S,10S,13S,14S,17S)-10-ethyl-3-hydroxy-3,13-dimethylhexadecahydro-1H-cyclopenta [a]phenanthren-17-yl)-2-(4-(methylsulfonyl)piperazin-1-yl)ethan-1-one] belongs 10 to 100 nM.

The values are drawn from patent US20210101928A1 (Sage Therapeutics, Inc., priority 2017, published 2021).
